These results are taken from patent publication US20070292967A1, “Assay for Ligands of the Ecdysone Receptor” (COMMONWEALTH SCIENTIFIC AND INDUSTRIAL RESEARCH OR, priority 2003, published 2007).

Holding throughout (assay type): binding
The target in experiment [1] is T1, MpLBD (Myzus persicae, UniProt A3EZJ9).
T1 sequence (A3EZJ9 70-308): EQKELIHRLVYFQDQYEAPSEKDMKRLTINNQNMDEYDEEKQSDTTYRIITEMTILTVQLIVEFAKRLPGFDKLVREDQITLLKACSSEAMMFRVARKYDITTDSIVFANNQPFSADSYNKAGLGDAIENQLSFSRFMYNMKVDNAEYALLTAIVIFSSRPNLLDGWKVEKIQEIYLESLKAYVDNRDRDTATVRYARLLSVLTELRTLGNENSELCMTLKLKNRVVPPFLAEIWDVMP
T1 sequence (A3EZK0 32-259 partner): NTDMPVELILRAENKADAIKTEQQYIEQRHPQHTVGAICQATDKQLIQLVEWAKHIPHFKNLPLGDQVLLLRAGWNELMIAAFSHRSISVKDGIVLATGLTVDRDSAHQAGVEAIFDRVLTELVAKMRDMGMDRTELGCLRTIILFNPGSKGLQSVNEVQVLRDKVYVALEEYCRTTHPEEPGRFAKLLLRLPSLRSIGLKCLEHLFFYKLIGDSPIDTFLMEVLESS
As to the kind of experiment: miniaturized automated radioligand-based competition assay, MpLBD. As to conditions: 1.3 nM [3H]ponasterone A, no CHAPS, read-out: Ki from radioligand-based MpLBD assay. As to the method: (§1) Subsequently, a miniaturized and automated version of the radioligand-based competition assay was used with MpLBD and BtLBD to obtain Ki values for the non-radioactive, non-fluorescent ecdysteroids that would later be used to validate the competitive inhibition format of the FP assay. While the concept of the assay was unchanged from that described above, some aspects of its execution were different. […] The mixtures were again allowed to reach equilibrium, but this time for 4 h at room temperature. The MpLBD was then captured on a 96-filter array (Unifilter-96 GF/C, Packard, Cat. No. 6005174) and rinsed using the wash tool and vacuum block of the Biomek 2000. The back of each filter-plate was then manually sealed using a sheet of Packard BackSeal, and 25 μl Packard MicroScint-20 scintillation fluid was dispensed into each well. The top of each plate was sealed with Packard TopSeal-A and the filters were allowed to solvate overnight. […] Since the amount of bound radioactivity was at most 28% of the total present, no additional corrections for ligand depletion were applied.

The target of experiment [2] is T1, MpLBD. As to the kind of experiment: FP competitive inhibition assay with MB4628 tracer, MpLBD. Conditions: 5 nM functional MpLBD, 36 nM MB4628, no CHAPS, Cheng-Prusoff; read-out: FP-derived Ki, MpLBD. As for the experimental part: (§2) For competitive inhibition assays, each well contained standard FP assay buffer containing 36 nM MB4628 and either 5 nM functional MpLBD or 6 nM functional BtLBD. The BtLBD assays, but not the MpLBD ones, were routinely done in the presence of 2 mM CHAPS. The final volume of all assays were 250 μl.
(§3) The inhibitor concentration at this midpoint was deemed to be the IC50 value for the inhibitor. IC50 values were converted to Ki values using the Cheng-Prusoff equation (Cheng & Prusoff, 1973), as follows: Ki=IC50/(1+([MB4628]tot/Kd)) where [MB-4628]tot is the total concentration of MB4628 in the assay, and Kd is the dissociation constant for MB4628 with the relevant receptor under the conditions of the assay. The Kd values for use in this equation were calculated from the basic FP titration curves (FIG. 3) using the knowledge that the receptor concentration at the titration midpoint is the value at which the receptor is half-saturated with MB4628. The Kd is the free MB4628 concentration at this point, and must therefore be: Kd=[MB4628]tot−([receptor]midpoint)/2

In experiment [3] the target is T2, BtLBD (Bemisia tabaci, UniProt A0A142K0N3). As to the kind of experiment: miniaturized automated radioligand-based competition assay, BtLBD. Conditions: 1.3 nM [3H]ponasterone A, no CHAPS, read-out: Ki from radioligand-based BtLBD assay. As for the experimental part:
as §1

Experiment [4] concerns the target T2, BtLBD. Put plainly: FP competitive inhibition assay with MB4628 tracer, BtLBD. Conditions: 6 nM functional BtLBD, 36 nM MB4628, 2 mM CHAPS, Cheng-Prusoff; read-out: FP-derived Ki, BtLBD. As for the experimental part: as §2, §3
The target of experiment [5] is MpLBD, recombinant M. persicae ecdysone receptor (Myzus persicae, UniProt A3EZJ9). Put plainly: manual radioligand-based competitive inhibition assay ([3H]ponasterone A), MpLBD. As to conditions: for ability to compete with [3H]ponasterone A / bind to MpLBD (in words): radioligand-based assay. As for the experimental part: The ability of inokosterone and fluorescent conjugates thereof to bind to recombinant M. persicae ecdysone receptor was assessed using the conventional radioligand binding assay in a competetive inhibition format (adapted from Koelle et al., 1991).
These procedures were performed manually, as follows. Assays were performed in EcR40 buffer [25 mM Hepes, 40 mM KCl, 10% glycerol, 1 mM sodium EDTA, 3 mM sodium azide] containing 0.5 mg/ml bovine serum albumin (BSA). An extract containing recombinant M. persicae edcdysone receptor, MpLBD, was prepared as described above and diluted in EcR40 buffer containing 0.5 mg/ml BSA to a concentration that generated filter counts around 10 000 cpm when the assay was done in the absence of competing ligands. […] Assays were set up to contain different final concentrations of fluorescent ecdysteroid by including the appropriate volumes of the relevant stock solutions. […] Each incubation was performed in a final volume of […] at room temperature (22° C.) for 90 min, whereupon it was held on ice until the filter adsorption/wash steps could be performed. Three 140 μl aliquots from each completed incubation were applied to glass microfibre filters (GF/C 24 mm diameter, Whatman, Cat. No. 1822024); i.e., every incubation generated three filters, each of which had been wet using 140 μl of the incubation mixture. After exposure to the liquid for 30 sec at room temperature, the wet filter was transferred to a vacuum sinter apparatus (Pyrex Filter Holder, Millipore Corp., Cat. No. XX1002500) and washed rapidly. Washing was done using 2×5 ml of ice-cold EcR40 buffer, intersperced with 3×0.5 ml buffer applied around the circumference of the filter to ensure that its edges were thoroughly rinsed. The damp filter was then transferred to a scintillation vial. When all the filters had been thus processed, 7 ml Packard InstaGel Plus scintillant was added to each scintillation vial. The sealed vials were vortexed and then incubated at room temperature for at least 2 h, during which time the filters became transparent. The vials were then scintillation counted (1 min per filter, tritium program, Packard TriCarb 2100TR scintillation counter). Datapoints were reported as the mean cpm value ±SEM for the three replicate filters arising from each incubation.
The inhibitor concentration at this midpoint was deemed to be the IC50 value for the inhibitor.

“2β,3β,14α,20R,22R,25-hexahydroxy-5β-cholest-7-ene-6-one [20-hydroxyecdysone]”: the Ki in experiment [1] was found to be 100 nM; in experiment [2], 1490 nM; in experiment [3] it was 240 nM; in experiment [4] it was 994 nM.
With `CCN(CC)c1ccc2cc(NC(=O)OCC(C)CCC(O)C(C)(O)C3CCC4(O)C5=CC(=O)C6CC(O)C(O)CC6(C)C5CCC34C)c(=O)oc2c1` (stereo not drawn) [MB4592], in experiment [5], the Ki is 20 nM and the “ability to compete with [3H]ponasterone A / bind to MpLBD (in words)” value is “unimpaired”.
Take `COc1ccc2cc(NC(=O)OCC(C)CC[C@@H](O)C(C)(O)C3CC[C@@]4(O)C5=CC(=O)[C@@H]6C[C@@H](O)[C@@H](O)CC6(C)C5CCC34C)c(=O)oc2c1` (stereo partly drawn) [MB4603]: in experiment [5], the Ki came out at 40 nM and the “ability to compete with [3H]ponasterone A / bind to MpLBD (in words)” value is “unimpaired”.
Take `CC(CC[C@@H](O)C(C)(O)C1CC[C@@]2(O)C3=CC(=O)[C@@H]4C[C@@H](O)[C@@H](O)CC4(C)C3CCC12C)COS(=O)(=O)c1cccc2c(N(C)C)cccc12` (stereo partly drawn) [MB4622]: the “ability to compete with [3H]ponasterone A / bind to MpLBD (in words)” value in experiment [5] is listed as “highly effective ligand”.
